Target: T1, BFT (Bacteroides fragilis, UniProt P54355)
T1 sequence (P54355 26-405): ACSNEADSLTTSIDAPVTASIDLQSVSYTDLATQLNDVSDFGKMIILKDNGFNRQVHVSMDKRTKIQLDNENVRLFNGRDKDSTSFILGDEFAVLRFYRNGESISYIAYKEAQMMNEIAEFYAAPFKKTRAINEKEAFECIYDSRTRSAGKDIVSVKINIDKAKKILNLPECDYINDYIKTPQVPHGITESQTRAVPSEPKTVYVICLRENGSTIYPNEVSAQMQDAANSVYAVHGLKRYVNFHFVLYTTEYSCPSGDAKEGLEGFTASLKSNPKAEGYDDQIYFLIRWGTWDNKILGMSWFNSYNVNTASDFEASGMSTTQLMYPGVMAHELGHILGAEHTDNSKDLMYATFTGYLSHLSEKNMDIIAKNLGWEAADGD
Format: cell-based, Bacterioides fragilis

NCCCCCN [cadaverine, 1,5-diaminopentane]
Effect of Cadaverine, enterotoxicity in Ussing chambers: completely
ΔIsc + cadaverine: 21.5

Reference: patent publication US6780414B2 (priority 1998, dated 2004)
